{
  "source": "paper PMC9465641",
  "about": "(Frontiers in Pharmacology, 2022)",
  "key": {"[1]": {"assay": "Population pharmacokinetic modeling of intravenous colistin sulfate (plasma LC-MS/MS, Phoenix NLME)", "assay_type": "in vivo, human", "procedure": "This study was conducted at the Third Xiangya Hospital of Central South University between May 2021 and April 2022. The design of this research fully conformed to the principles of the Helsinki Accords, and the study protocol was approved by the Research Ethics Committee of the Third Xiangya Hospital of Central South University (No: 2021-S396). Written informed consent was obtained from all patients or their legal representatives.\nColistin sulfate treatment was at the discretion of their medical teams. […] Colistin sulfate was routinely subjected to therapeutic drug monitoring (TDM) in our hospital. […] Other blood samples were collected randomly from residual blood of blood gas analysis or routine blood tests. In addition, urine samples from 6 patients with catheters in the intensive care unit were collected and recorded across a dosage interval (0–12 h after dosing) after 72 h of therapy. All samples were centrifuged for 10 min (4,000 ×g), and the supernatant was immediately collected and stored at −80°C pending analysis.\nColistin A and colistin B in plasma and urinary samples were quantified using a validated ultraperformance liquid chromatography tandem mass spectrometry (LC-MS/MS) assay. Briefly, samples were pretreated with acetonitrile, and 1 μL supernatant was injected into the LC-MS/MS instrument for analysis. A Waters XBridge BEH HILIC (4.6 × 150 mm, 2.5 μm) column was used. The mobile phase, consisting of eluents A (0.1% formic acid in water, vol/vol) and B (methanol), was delivered at a flow of 0.5 ml/min. Analysis of independently prepared quality control samples indicated good reproducibility (coefficients of variation ≤12.57%), and accuracy ranged from 88.52% to 109.43%. The limit of quantification was 0.034 mg/L for colistin A and 0.059 mg/L for colistin B. Since colistin A and B had similar structures, molecular weights and pharmacokinetic characteristics, the concentrations of colistin A and B were added together and referred to as colistin ([Li et al., 2003]; [Couet et al., 2011]).\nPopulation PK analysis was performed using a non-linear mixed-effect modeling with the Phoenix® NLME software (version 8.3.4, Certara L.P. United States). The first-order conditional estimation-extended least-squares (FOCE-ELS) method was used to develop the PPK model. One- and two-compartment models with linear elimination were compared based on Akaike information criteria (AIC) and Bayesian information criterion (BIC). The inter-individual variability of PK parameters was assumed to follow a log-normal distribution and described using an exponential model, and residual variability was described by an additive, proportional, or combined error model. The coefficient of variation (CV%), goodness-of-fit plots, and the likelihood ratio test (-2 loglikelihood; -2LL) were used to evaluate the model.\nThen, a stepwise covariate modeling (SCM) method was used to explore candidate covariates on PK parameters, including age, sex, weight, ALT, AST, TBIL, DBIL, TBA, TP, ALB, UA, BUN, CrCL, WBC, NEUT, HGB, RBC, HCT, PLT, PT, TT, APTT, PA, FIB, CRP, PCT, LAC, and 24-h urine volume, where continuous covariates (e.g., age) were modeled by using the power function and categorical covariates (e.g., sex) were described by an exponential function. By comparing with the base model, a drop in objective function value (OFV) > 3.84 (p < 0.05, df = 1) during forward selection steps and an increase of OFV >6.63 (p < 0.01, df = 1) in backward elimination steps were the inclusion criteria for covariates.\nFinally, the reliability of the final model was evaluated by goodness-of-fit plots. Additionally, the performance of the final model was assessed by a prediction-corrected visual predictive check (pcVPC) of 1,000 replicates using Monte Carlo simulations, and a bootstrap analysis with 1,000 samples was conducted to evaluate the model stability."}, "[2]": {"assay": "Individual drug exposure at steady state (PK/PD analysis)", "assay_type": "in vivo, human"}, "[3]": {"test_system": "PA+AB (P. aeruginosa + A. baumannii)", "assay": "MIC for colistin of causative pathogen", "assay_type": "cell-based"}, "[4]": {"design": "method as in Al-Khayyat and Aronson, 1973", "conditions": "dogs; ref Al-Khayyat and Aronson, 1973; cited from earlier work"}, "[5]": {"conditions": "patient 1, 1.0 MU q12h, CrCL 63.93 ml/min"}, "[6]": {"conditions": "patient 2, 1.0 MU q12h, CrCL 138.05 ml/min"}, "[7]": {"conditions": "patient 3, 0.75 MU q12h + inhaled 0.25MU q12h, CrCL 193.84 ml/min"}, "[8]": {"conditions": "patient 6, 1.0 MU q12h + inhaled 0.25MU q12h, CrCL 23.79 ml/min"}, "[9]": {"conditions": "patient 7, 0.75 MU q12h + inhaled 0.25MU q12h, CrCL 10.2 ml/min"}, "[10]": {"conditions": "patient 8, 0.75 MU q12h + inhaled 0.25MU q12h, CrCL 62.44 ml/min"}, "[11]": {"conditions": "patient 9, 0.75 MU q12h + inhaled 0.25MU q12h, CrCL 70.98 ml/min"}, "[12]": {"conditions": "patient 10, 0.75 MU q12h + inhaled 0.25MU q12h, CrCL 29.3 ml/min"}, "[13]": {"conditions": "patient 11, 1.0 MU q12h, CrCL 26.81 ml/min"}, "[14]": {"conditions": "patient 12, 0.5 MU q8h, CrCL 9.7 ml/min"}, "[15]": {"conditions": "patient 13, 0.5 MU q8h, CrCL 52.49 ml/min"}, "[16]": {"conditions": "patient 14, 0.5 MU q8h, CrCL 93.28 ml/min"}, "[17]": {"conditions": "patient 15, 0.75 MU q8h + inhaled 0.25MU q12h, CrCL 41.41 ml/min"}, "[18]": {"conditions": "patient 16, 0.5 MU q8h + inhaled 0.25MU q12h, CrCL 45.07 ml/min"}, "[19]": {"conditions": "patient 18, 0.75 MU q12h + inhaled 0.25MU q12h, CrCL 101.48 ml/min"}, "[20]": {"conditions": "patient 19, 0.5 MU q8h, CrCL 91.55 ml/min"}},
  "note": "Structures can show the parent of a compound that is named as a salt. Positions of bridges follow the written chain, without caps; N, C: chain ends. Non-standard residues stand in square brackets, D forms with d. Residues, ends and D or L forms follow the SMILES beside them. *: point of attachment. X1 = CC[C@H](C)CCCCC(=O)*; Dab = NCC[C@H](N)C(=O)O",
  "data": [
    {"smiles": "CC[C@H](C)CCCCC(=O)N[C@@H](CCN)C(=O)N[C@H](C(=O)N[C@@H](CCN)C(=O)N[C@H]1CCNC(=O)[C@H]([C@@H](C)O)NC(=O)[C@H](CCN)NC(=O)[C@H](CCN)NC(=O)[C@H](CC(C)C)NC(=O)[C@@H](CC(C)C)NC(=O)[C@H](CCN)NC1=O)[C@@H](C)O", "note": "[colistin sulfate] (X1-[Dab]T[Dab][Dab][Dab][dL]L[Dab][Dab]T; lactam 4-C)", "values": [
      {"measurement": "dV2dALT, exponential parameter coefficient of ALT to V2, final model estimate", "setting": "[1]; PPK model, n = 20", "result": 0.635},
      {"measurement": "dCLdCrCL, bootstrap median", "setting": "[1]; bootstrap with 1,000 samples", "result": 0.373},
      {"measurement": "dV2dALT, bootstrap median", "setting": "[1]; bootstrap with 1,000 samples", "result": 0.633},
      {"measurement": "tvCL2, bootstrap median", "setting": "[1]; bootstrap with 1,000 samples", "result": 1.78, "unit": "L/h"},
      {"measurement": "tvCL, bootstrap median", "setting": "[1]; bootstrap with 1,000 samples", "result": 1.46, "unit": "L/h"},
      {"measurement": "tvV2, bootstrap median", "setting": "[1]; bootstrap with 1,000 samples", "result": 53.8, "unit": "L"},
      {"measurement": "tvV, bootstrap median", "setting": "[1]; bootstrap with 1,000 samples", "result": 16.2, "unit": "L"},
      {"measurement": "tvV, typical value of volume of central compartment distribution (V), final model estimate", "setting": "[1]; critically ill patients, iv, n = 20, 98 plasma concentrations, two-compartment PPK model", "result": 16.1, "unit": "L"},
      {"measurement": "tvCL2, typical value of inter-compartmental clearance (CL2), final model estimate", "setting": "[1]; critically ill patients, iv, n = 20, two-compartment PPK model", "result": 1.71, "unit": "L/h"},
      {"measurement": "tvV2, typical value of volume of peripheral compartment distribution (V2), final model estimate", "setting": "[1]; critically ill patients, iv, n = 20, two-compartment PPK model, at ALT 37", "result": 50.5, "unit": "L"},
      {"measurement": "tvCL, typical value of central compartment clearance (CL), final model estimate", "setting": "[1]; critically ill patients, iv, n = 20, two-compartment PPK model, at CrCL 57.5", "result": 1.50, "unit": "L/h"},
      {"measurement": "CL, median", "setting": "[1]; six patients with urine samples, median", "result": 1.519, "unit": "L/h"},
      {"measurement": "Css, avg", "setting": "[2]; [5]", "result": 1990, "unit": "ng/mL"},
      {"measurement": "Css, max", "setting": "[2]; [5]", "result": 3980, "unit": "ng/mL"},
      {"measurement": "Css, avg", "setting": "[2]; [6]", "result": 1170, "unit": "ng/mL"},
      {"measurement": "Css, max", "setting": "[2]; [6]", "result": 2480, "unit": "ng/mL"},
      {"measurement": "Css, avg", "setting": "[2]; [7]", "result": 570, "unit": "ng/mL"},
      {"measurement": "Css, max", "setting": "[2]; [7]", "result": 1710, "unit": "ng/mL"},
      {"measurement": "Css, min", "setting": "[2]; [7]", "result": 130, "unit": "ng/mL"},
      {"measurement": "Css, avg", "setting": "[2]; [8]", "result": 2430, "unit": "ng/mL"},
      {"measurement": "Css, max", "setting": "[2]; [8]", "result": 3010, "unit": "ng/mL"},
      {"measurement": "Css, min", "setting": "[2]; [8]", "result": 1950, "unit": "ng/mL"},
      {"measurement": "Css, avg", "setting": "[2]; [9]", "result": 1590, "unit": "ng/mL"},
      {"measurement": "Css, max", "setting": "[2]; [9]", "result": 2490, "unit": "ng/mL"},
      {"measurement": "Css, min", "setting": "[2]; [9]", "result": 890, "unit": "ng/mL"},
      {"measurement": "Css, avg", "setting": "[2]; [10]", "result": 1150, "unit": "ng/mL"},
      {"measurement": "Css, max", "setting": "[2]; [10]", "result": 2100, "unit": "ng/mL"},
      {"measurement": "Css, avg", "setting": "[2]; [11]", "result": 2040, "unit": "ng/mL"},
      {"measurement": "Css, max", "setting": "[2]; [11]", "result": 3020, "unit": "ng/mL"},
      {"measurement": "Css, min", "setting": "[2]; [11]", "result": 1400, "unit": "ng/mL"},
      {"measurement": "Css, avg", "setting": "[2]; [12]", "result": 1510, "unit": "ng/mL"},
      {"measurement": "Css, max", "setting": "[2]; [12]", "result": 2480, "unit": "ng/mL"},
      {"measurement": "Css, min", "setting": "[2]; [12]", "result": 870, "unit": "ng/mL"},
      {"measurement": "Css, avg", "setting": "[2]; [13]", "result": 4400, "unit": "ng/mL"},
      {"measurement": "Css, max", "setting": "[2]; [13]", "result": 5840, "unit": "ng/mL"},
      {"measurement": "Css, avg", "setting": "[2]; [14]", "result": 2070, "unit": "ng/mL"},
      {"measurement": "Css, max", "setting": "[2]; [14]", "result": 2670, "unit": "ng/mL"},
      {"measurement": "Css, avg", "setting": "[2]; [15]", "result": 1490, "unit": "ng/mL"},
      {"measurement": "Css, max", "setting": "[2]; [15]", "result": 2090, "unit": "ng/mL"},
      {"measurement": "Css, avg", "setting": "[2]; [16]", "result": 740, "unit": "ng/mL"},
      {"measurement": "Css, max", "setting": "[2]; [16]", "result": 1340, "unit": "ng/mL"},
      {"measurement": "Css, avg", "setting": "[2]; [17]", "result": 2520, "unit": "ng/mL"},
      {"measurement": "Css, max", "setting": "[2]; [17]", "result": 3620, "unit": "ng/mL"},
      {"measurement": "Css, avg", "setting": "[2]; [18]", "result": 1580, "unit": "ng/mL"},
      {"measurement": "Css, max", "setting": "[2]; [18]", "result": 2240, "unit": "ng/mL"},
      {"measurement": "Css, avg", "setting": "[2]; [19]", "result": 860, "unit": "ng/mL"},
      {"measurement": "Css, max", "setting": "[2]; [19]", "result": 1890, "unit": "ng/mL"},
      {"measurement": "Css, min", "setting": "[2]; [19]", "result": 280, "unit": "ng/mL"},
      {"measurement": "Css, avg", "setting": "[2]; [20]", "result": 1330, "unit": "ng/mL"},
      {"measurement": "Css, max", "setting": "[2]; [20]", "result": 1920, "unit": "ng/mL"},
      {"measurement": "Css, min", "setting": "[2]; [20]", "result": 830, "unit": "ng/mL"},
      {"measurement": "MIC", "setting": "[3]; isolates of patient 15, first printed value", "result": 1, "unit": "µg/mL"},
      {"measurement": "MIC", "setting": "[3]; isolates of patient 15, second printed value", "result": 2, "unit": "µg/mL"},
      {"measurement": "dose recovered from urine", "setting": "[4]", "result": "0.13 ± 0.09", "unit": "%"}
    ]}
  ]
}
